{
  "source": "patent US9068194B2",
  "about": "“Increasing plant growth by modulating omega-amidase expression in plants” (Los Alamos National Security, LLC, priority 2010, dated 2015)",
  "molecules": {"B1": {"name": "GPT/F:V mutant: mutant GPT from the natural Arabidopsis GPT, substituting V (valine) for the F (phenylalanine) residue in NLGQGFP; expressed in E. coli (protein)", "chain": "MYLDINGVMIKQFSFKASLLPFSSNFRQSSAKIHRPIGATMTTVSTQNESTQKPVQVAKRLEKFKTTIFTQMSILAVKHGAINLGQGVPNFDGPDFVKEAAIQAIKDGKNQYARGYGIPQLNSAIAARFREDTGLVVDPEKEVTVTSGCTEAIAAAMLGLINPGDEVILFAPFYDSYEATLSMAGAKVKGITLRPPDFSIPLEELKAAVTNKTRAILMNTPHNPTGKMFTREELETIASLCIENDVLVFSDEVYDKLAFEMDHISIASLPGMYERTVTMNSLGKTFSLTGWKIGWAIAPPHLTWGVRQAHSYLTFATSTPAQWAAVAALKAPESYFKELKRDYNVKKETLVKGLKEVGFTVFPSSGTYFVVADHTPFGMENDVAFCEYLIEEVGVVAIPTSVFYLNPEEGKNLVRFAFCKDEETLRGAIERMKQKLKRKV", "modifications": "synthetic Arabidopsis glutamine phenylpyruvate transaminase (GPT) mutant GPT/FV with V substitution in conserved region at position 88", "notes": "mutant GPT from the natural Arabidopsis GPT, substituting V (valine) for the F (phenylalanine) residue in NLGQGFP; expressed in E. coli"}},
  "key": {"Ω-amidase in corn roots": {"system": "Ω-amidase in corn roots", "assay": "Treatment of sweet corn roots with ω-amidase inhibitor DON (hydroponic)", "format": "in vivo", "procedure": "(§1) HPLC Assay for 2-oxoglutaramate: HPLC was used to assay 2-oxoglutaramate, following a modification of Calderon et al., 1985, J Bacteriol 161(2): 807-809. Briefly, 2-oxoglutaramate was extracted from plant tissue in distilled de-ionized water acidified to less than pH 2.0 with HCl using a weight to volume ratio of 2:1. 2-Oxoglutaramate was detected and quantified by HPLC, using an ION-300 7.8 mm ID×30 cm L column, with a mobile phase in 0.01NH2SO4, a flow rate of approximately 0.2 ml/min, at 40° C. Injection volume is approximately 20 and retention time between about 38 and 39 minutes. Detection is achieved with 210 nm UV light. Authentic 2-oxoglutaramate was used to calibrate the assay.\n(§2) Ω-amidase activity was determined using the 96-well plate assay as described in Krasnikov et al., 2009, Analytical Biochemistry 391: 144-150.\n(§3) Columbia nutrient solution was utilized (Knight and Weissman, 1982, Plant Physiol. 70: 1683).\n(§4) Plants were grown hydroponically at 24° C. using a 16 hour/day light and 8 hour/day dark photoperiod. Seeds were first germinated and seedlings were grown for 9 days, at which time the individual seedlings were suspended with their roots in the nutrient solution (600 ml of nutrient, pH 6.3) in an 800 ml beaker covered with aluminum foil, with a slit for the seedlings, to prevent algal growth. The beakers were aerated with air provided by a small pump and delivered into the solution through a glass Pasteur pipette. For the treatments, DON was added to the nutrient solution to a final concentration of 1 microgram per ml. Thus DON was supplied continuously to the treated seedlings. The controls were grown in the same nutrient solution without DON. The solutions were refreshed every third day. Plants were sacrificed and analyzed for fresh weight, ω-amidase activity, and 2-oxoglutaramate concentrations in leaf and root tissue 14 days after initiation of treatment."}, "Ω-amidase in bean roots": {"system": "Ω-amidase in bean roots", "assay": "Treatment of pole bean roots with ω-amidase inhibitor DON (hydroponic)", "format": "in vivo", "procedure": "as §1, §2, §3, §4"}, "Ω-amidase in corn leaves": {"system": "Ω-amidase in corn leaves", "assay": "Treatment of corn leaves with ω-amidase inhibitor DON (foliar spray)", "format": "in vivo", "procedure": "as §1, §2, §3\nPlants were grown in sand at 24° C. using a 16 hour/day light and 8 hour/day dark photoperiod. Seeds were germinated in the sand and allowed to grow for 9-14 days after seedling emergence. Seedlings (1 per 3 inch pot) were provided nutrients daily. The top of each pot was covered with Saran plastic film, with a slit cut to allow the seedlings room to emerge, in order to prevent treatment solution from reaching the soil. Leaves were treated by spraying DON treatment/nutrient solution twice daily. The DON treatment/nutrient solution contained 1 microgram/ml DON, 50 micoliters/liter SILWET L77 (a surfactant) and 0.02 vol/vol % glycerol (a humectant) at pH 6.3, dissolved in nutrient solution. Control plants were sprayed daily with the same solution without DON. An airbrush was used to apply the solutions until drip. Plants were sacrificed and analyzed for fresh weight, ω-amidase activity, and 2-oxoglutaramate concentrations in leaf and root tissue 14 days after initiation of treatment."}, "[1]": {"system": "GPT (glutamine phenylpyruvate transaminase), substrate glutamine", "assay": "Kinetic analysis of GPT substitution mutants expressed in E. coli", "format": "biochemical, Arabidopsis", "settings": "enzyme expressed in E. coli", "procedure": "Maximal velocity was determined using the formula: Vmax=Kcat[E]tot. The apparent unimolecular rate constant kcat is also called turnover number and denotes the maximum number of enzymatic reactions catalyzed per second.\nThis mutant GPT enzyme may be expected to produce more product, the 2-oxoglutaramate, per unit time than the wild type GPT when the concentration of the substrate glutamine is present in millimolar or greater quantities, thus assuring that the […] is saturating."}, "[2]": {"settings": "root treatment 1 microgram per ml DON, 14 days"}, "[3]": {"settings": "bean, root treatment 1 microgram per ml DON, 14 days"}, "[4]": {"settings": "leaf treatment with DON, average of treated plants"}, "[5]": {"settings": "leaves sprayed twice daily with 1 microgram/ml DON, 14 days (Table 17)"}},
  "note": "Several values for one entry are separate records, joined by “and”; a condition that tells them apart may be missing. Identical values can stand only once.",
  "data": [
    {"molecule": "[N-]=[N+]=CC(=O)CC[C@H](N)C(=O)O", "note": "[DON, 6-diazo-5-oxo-nor-leucine]", "values": [
      {"measurement": "ω-amidase activity", "setting": "Ω-amidase in corn roots; continuous DON treatment of roots", "value": "None of the DON treated plants had detectable levels of ω-amidase activity"},
      {"measurement": "growth", "setting": "Ω-amidase in corn roots; continuous DON treatment of roots, versus untreated control plants", "value": "severely stunted growth"},
      {"measurement": "2-OGM ROOT", "setting": "Ω-amidase in corn roots; [2]", "value": 2288, "unit": "nmoles/gfwt"},
      {"measurement": "LEAF/ROOT RATIO (2-OGM)", "setting": "Ω-amidase in corn roots; [2]", "value": 0.13},
      {"measurement": "2-OGM LEAF", "setting": "Ω-amidase in corn roots; root treatment 1 microgram per ml DON, 14 days, 2-OGM = 2-oxoglutaramate", "value": 300, "unit": "nmoles/gfwt"},
      {"measurement": "increase of 2-oxoglutaramate in roots", "setting": "Ω-amidase in corn roots; root treatment with DON, versus control", "value": "over 30 fold"},
      {"measurement": "% INCREASE IN FWT", "setting": "Ω-amidase in corn roots; roots in nutrient solution with 1 microgram per ml DON continuously, 14 days after initiation of treatment", "value": 174, "unit": "%"},
      {"measurement": "ω-amidase activity", "setting": "Ω-amidase in bean roots; bean, continuous DON treatment of roots", "value": "None of the DON treated plants had detectable levels of ω-amidase activity"},
      {"measurement": "growth", "setting": "Ω-amidase in bean roots; bean, continuous DON treatment of roots, versus untreated control plants", "value": "severely stunted growth"},
      {"measurement": "2-OGM LEAF", "setting": "Ω-amidase in bean roots; [3]", "value": 279, "unit": "nmoles/gfwt"},
      {"measurement": "2-OGM ROOT", "setting": "Ω-amidase in bean roots; [3]", "value": 1586, "unit": "nmoles/gfwt"},
      {"measurement": "LEAF/ROOT RATIO (2-OGM)", "setting": "Ω-amidase in bean roots; [3]", "value": 0.18},
      {"measurement": "% INCREASE IN FWT", "setting": "Ω-amidase in bean roots; bean, roots in nutrient solution with 1 microgram per ml DON continuously, 14 days after initiation of treatment", "value": 198, "unit": "%"},
      {"measurement": "increase of 2-oxoglutaramate in roots", "setting": "Ω-amidase in bean roots; beans, root treatment with DON, versus control", "value": 15, "unit": "fold"},
      {"measurement": "corn plant fresh weights versus untreated", "setting": "Ω-amidase in corn leaves; leaf treatment with DON", "value": "near doubling"},
      {"measurement": "increase of 2-oxoglutaramate in leaves over untreated plants", "setting": "Ω-amidase in corn leaves; leaf treatment with DON", "value": "more than 7 fold"},
      {"measurement": "leaf ω-amidase activity relative to untreated plants", "setting": "Ω-amidase in corn leaves; leaf treatment with DON", "value": "about 50%"},
      {"measurement": "Amidase activity Leaf", "setting": "Ω-amidase in corn leaves; [4]", "value": 0.135, "unit": "μmole/gfw/hr"},
      {"measurement": "Whole Plant Fresh Wt, Average", "setting": "Ω-amidase in corn leaves; [4]", "value": 21.4, "unit": "g"},
      {"measurement": "2-Oxoglutaramate Concentration", "setting": "Ω-amidase in corn leaves; leaf treatment with DON, average of treated plants (Table 18)", "value": 838.8, "unit": "nmoles/gfwt"},
      {"measurement": "Whole Plant Fresh Wt", "setting": "Ω-amidase in corn leaves; leaf treatment with DON, individual treated plants", "value": "20.9 g and 19.2 g and 24.3 g"},
      {"measurement": "2-OGM LEAF", "setting": "Ω-amidase in corn leaves; [5]", "value": 753.9, "unit": "nmoles/gfwt"},
      {"measurement": "2-OGM ROOT", "setting": "Ω-amidase in corn leaves; [5]", "value": 126.8, "unit": "nmoles/gfwt"},
      {"measurement": "LEAF/ROOT RATIO (2-OGM)", "setting": "Ω-amidase in corn leaves; [5]", "value": 5.0}
    ]},
    {"molecule": "B1", "values": [
      {"measurement": "Km", "setting": "[1]", "value": 750, "unit": "µM"},
      {"measurement": "increase of Vmax over the wild type", "setting": "[1]", "value": 20, "unit": "%"},
      {"measurement": "Vmax", "setting": "[1]; same amount of protein", "value": 6.04}
    ]}
  ]
}
